According to US11654198B2, “Application of combination of polyethylene glycol and local anesthetic in non-narcotic analgesia” (JENKEM TECHNOLOGY CO., LTD. (TIANJIN), priority 2016, dated 2023):

Assays:
[1] = PEG-bupivacaine conjugate hydrolysis drug release in pH 7.4 PBS buffer (Example 29); type: physicochemical; details: 37° C., about 2 mg/mL
Description: Preparation of isotonic phosphate buffer (0.01 mol/L, pH 7.4, PBS): 8.0 g of NaCl, 0.2 g of KH2PO4, 2.9 g of Na2HPO4.12H2O and 0.2 g of KCl are added sequentially to a quantitative container, and an appropriate amount of distilled water is added to dissolve, and then the volume is adjusted to 1000 mL and the obtained buffer is stored in a refrigerator at 4° C. for use.
Hydrolysis drug release for the PEG-bupivacaine conjugate: PEG-bupivacaine products (bupivacaine conjugate 6, prepared in Example 9 of the present invention; bupivacaine conjugate 10, prepared in Example 16 of the present invention) are dissolved in PBS buffer at about 2 mg/mL and placed in a water-bathing constant temperature vibrator at 37° C. Samples are taken at 0 h, 6 h, 12 h, 24 h, 48 h, 72 h, 96 h, 120 h and 144 h, and the content of free bupivacaine is determined by HPLC.

SD rats = test: Motor block four-level score, bupivacaine dose test (Example 28); type: in vivo, rat; parameters: key to motor function score: 1 = normal movement, 4 = complete loss of paw function
Excerpt: 1.3 Test substance: bupivacaine injection, diluted with physiological saline to the target concentration; the reference substance is physiological saline.
After the animals are anesthetized by intraperitoneal injection of 10% chloral hydrate solution, the sciatic nerve is exposed to the biceps and gluteus maximus joints of the hind limbs through surgery, and silicone flexible catheters of the same length (7 cm) are placed around the sciatic nerve. the other ends of the catheters are subcutaneously embedded in the back of the rat, and then sutured and fixed, and 0.2 mL of an antibiotic solution (5,000 U/ml penicillin G) is injected for anti-inflammatory.
Twenty-four qualified rats (animals with no dyskinesia and pain threshold change after catheterization) are randomly divided into 6 groups, 4 rats in each group, the first group is a control group, the experimental animals are administered with normal saline, and the other groups are administered with different doses of bupivacaine injection. Each group is injected with a corresponding drug through the catheter around the sciatic nerve.
The exercise condition of each group of rats is evaluated by a motor block four-level scoring method. The scoring criteria are: paws can be dorsiflexed, stretched, valgus and other normal exercises, scored by 1 point; paws can be dorsiflexed, bendable or after the adduction, although the paws can be stretched, the stretching ability is weakened, scored by 2 points; the paws can perform dorsiflexion, but no longer has the ability to stretch, scored by 3 points; the paws completely lose the ability of dorsiflexion, curling and stretching, and the rats produce a gait defect, scored by 4 points. The time point for measuring the motor block score is before administration, and 5 min, 10 min, 30 min, 1 h, and 2 h after administration.

experimental animals = test: Duration of non-anesthetic analgesic effect (statement in background); type: in vivo; details: single dose

8-Arm-PEG-Bupivacaine, 20K [bupivacaine conjugate 10]
PEG-bupivacaine hydrolysis rate ([1]; 0 h): 0.43%
PEG-bupivacaine hydrolysis rate ([1]; 6 h): 15.03%
PEG-bupivacaine hydrolysis rate ([1]; 12 h): 25.19%
PEG-bupivacaine hydrolysis rate ([1]; 24 h): 40.37%
PEG-bupivacaine hydrolysis rate ([1]; 48 h): 61.72%
PEG-bupivacaine hydrolysis rate ([1]; 72 h): 76.25%
PEG-bupivacaine hydrolysis rate ([1]; 96 h): 87.28%
PEG-bupivacaine hydrolysis rate ([1]; 120 h): 92.76%
PEG-bupivacaine hydrolysis rate ([1]; 144 h): 96.13%

CCCCN1CCCCC1C(=O)Nc1c(C)cccc1C (stereo not drawn) [bupivacaine]
motor block effect (summary) (SD rats; 3 mg/kg (0.66 mg/rat) and 1 mg/kg (0.22 mg/rat)): motor block effect
motor nerve block effect (summary) (SD rats; 0.3, 0.1, 0.03 mg/kg (ie, 0.066, 0.022, 0.0066 mg/rat)): no motor nerve block effect is observed
motor function score (SD rats; group 2, 3 mg/kg (0.66 mg/rat) trans-catheter, 0 min (before administration)): 1 ± 0
motor function score (SD rats; group 2, 3 mg/kg (0.66 mg/rat) trans-catheter, 5 min): 1 ± 0
motor function score (SD rats; group 2, 3 mg/kg (0.66 mg/rat) trans-catheter, 10 min): 1.75 ± 0.5
motor function score (SD rats; group 2, 3 mg/kg (0.66 mg/rat) trans-catheter, 30 min): 1.75 ± 0.5
motor function score (SD rats; group 2, 3 mg/kg (0.66 mg/rat) trans-catheter, 60 min): 1.75 ± 0.5
motor function score (SD rats; group 2, 3 mg/kg (0.66 mg/rat) trans-catheter, 120 min): 1 ± 0
motor function score (SD rats; group 3, 1 mg/kg (0.22 mg/rat) trans-catheter, 0 min (before administration)): 1 ± 0
motor function score (SD rats; group 3, 1 mg/kg (0.22 mg/rat) trans-catheter, 5 min): 1.5 ± 0.58
motor function score (SD rats; group 3, 1 mg/kg (0.22 mg/rat) trans-catheter, 10 min): 1.5 ± 0.58
motor function score (SD rats; group 3, 1 mg/kg (0.22 mg/rat) trans-catheter, 30 min): 1.25 ± 0.5
motor function score (SD rats; group 3, 1 mg/kg (0.22 mg/rat) trans-catheter, 60 min): 1 ± 0
motor function score (SD rats; group 3, 1 mg/kg (0.22 mg/rat) trans-catheter, 120 min): 1 ± 0
motor function score (SD rats; group 4, 0.3 mg/kg (0.066 mg/rat) trans-catheter, 0 min (before administration)): 1 ± 0
motor function score (SD rats; group 4, 0.3 mg/kg (0.066 mg/rat) trans-catheter, 5 min): 1 ± 0
motor function score (SD rats; group 4, 0.3 mg/kg (0.066 mg/rat) trans-catheter, 10 min): 1 ± 0
motor function score (SD rats; group 4, 0.3 mg/kg (0.066 mg/rat) trans-catheter, 30 min): 1 ± 0
motor function score (SD rats; group 4, 0.3 mg/kg (0.066 mg/rat) trans-catheter, 60 min): 1 ± 0
motor function score (SD rats; group 4, 0.3 mg/kg (0.066 mg/rat) trans-catheter, 120 min): 1 ± 0
motor function score (SD rats; group 5, 0.1 mg/kg (0.022 mg/rat) trans-catheter, 0 min (before administration)): 1 ± 0
motor function score (SD rats; group 5, 0.1 mg/kg (0.022 mg/rat) trans-catheter, 5 min): 1 ± 0
motor function score (SD rats; group 5, 0.1 mg/kg (0.022 mg/rat) trans-catheter, 10 min): 1 ± 0
motor function score (SD rats; group 5, 0.1 mg/kg (0.022 mg/rat) trans-catheter, 30 min): 1 ± 0
motor function score (SD rats; group 5, 0.1 mg/kg (0.022 mg/rat) trans-catheter, 60 min): 1 ± 0
motor function score (SD rats; group 5, 0.1 mg/kg (0.022 mg/rat) trans-catheter, 120 min): 1 ± 0
motor function score (SD rats; group 6, 0.03 mg/kg (0.0066 mg/rat) trans-catheter, 0 min (before administration)): 1 ± 0
motor function score (SD rats; group 6, 0.03 mg/kg (0.0066 mg/rat) trans-catheter, 5 min): 1 ± 0
motor function score (SD rats; group 6, 0.03 mg/kg (0.0066 mg/rat) trans-catheter, 10 min): 1 ± 0
motor function score (SD rats; group 6, 0.03 mg/kg (0.0066 mg/rat) trans-catheter, 30 min): 1 ± 0
motor function score (SD rats; group 6, 0.03 mg/kg (0.0066 mg/rat) trans-catheter, 60 min): 1 ± 0
motor function score (SD rats; group 6, 0.03 mg/kg (0.0066 mg/rat) trans-catheter, 120 min): 1 ± 0
time the non-anesthetic analgesic effect is maintained (experimental animals): at most 1 hour
